The values below come from ChEMBL document CHEMBL3046900, “Synthesis and Fungitoxic Activity of N-Cinnamoyl--Amino Acid Esters” (2000).

Assay [1] has as its system Pythium. In words: Fungitoxic activity against Pythium sp. assessed as mycelial growth inhibition at 100 ppm after 3 days. It counts as functional. The note with it: 72 h, read-out: GI.
The subject of assay [2] is Athelia rolfsii. In words: Fungitoxic activity against Athelia rolfsii assessed as mycelial growth inhibition at 100 ppm after 3 days. It counts as functional. The note with it: Agroathelia rolfsii, 72 h; read-out: GI.

Molecules are shown by their SMILES.

Turning to `CCOC(=O)[C@H](C)NC(=O)/C=C/c1ccc(Cl)cc1`, the figures for the inhibition of growth at 100 ppm in assay [1] and in assay [2] were 27% and 47%, respectively.

Consider `CC[C@H](C)[C@H](NC(=O)/C=C/c1ccccc1)C(=O)OC`, for which the inhibition of growth at 100 ppm in assay [1] worked out at 39%; in assay [2], 33%.

For `CCOC(=O)[C@@H](NC(=O)/C=C/c1ccccc1)[C@@H](C)CC`, the inhibition of growth at 100 ppm in assay [1] came out at 49%; in assay [2], 30%.

With `COC(=O)[C@H](Cc1ccccc1)NC(=O)/C=C/c1ccccc1`, the inhibition of growth at 100 ppm in assay [1] worked out at 37%; in assay [2] it was 49%.

Regarding `COC(=O)[C@H](C)NC(=O)/C=C/c1ccc(C(C)C)cc1`, the inhibition of growth at 100 ppm in assay [1] turned out to be 52%; in assay [2], 67%.

With `CCOC(=O)[C@H](CC(C)C)NC(=O)/C=C/c1ccc(C(C)C)cc1`, the results for the inhibition of growth at 100 ppm in assay [1] and in assay [2] were 44% and 43%, respectively.

Turning to `CCCOC(=O)[C@H](CC(C)C)NC(=O)/C=C/c1ccc(C(C)C)cc1`, the figures for the inhibition of growth at 100 ppm in assay [1] and in assay [2] were 43% and 46%, respectively.

On to `CCOC(=O)[C@H](CC(C)C)NC(=O)/C=C/c1ccc(Cl)cc1Cl`, for which the inhibition of growth at 100 ppm was 30% in assay [1] and 34% in assay [2].

As to `CCCOC(=O)[C@H](CC(C)C)NC(=O)/C=C/c1ccc(Cl)cc1Cl`, the inhibition of growth at 100 ppm was determined as 38% in assay [1] and 33% in assay [2].

On to `CC(C)C[C@H](NC(=O)/C=C/c1ccc(Cl)cc1Cl)C(=O)OC(C)C`, for which the figures for the inhibition of growth at 100 ppm in assay [1] and in assay [2] were 42% and 39%, respectively.

In the case of `COC(=O)[C@H](Cc1ccccc1)NC(=O)/C=C/c1ccc(Cl)cc1Cl`, the inhibition of growth at 100 ppm in assay [1] turned out to be 38%; in assay [2] it was 46%.

As to `CCOC(=O)[C@H](Cc1ccccc1)NC(=O)/C=C/c1ccc(Cl)cc1Cl`, the inhibition of growth at 100 ppm in assay [1] stood at 18%; in assay [2] it was 35%.

For `CCOC(=O)[C@H](Cc1ccccc1)NC(=O)/C=C/c1ccc(C(C)C)cc1`, the inhibition of growth at 100 ppm came to 20% in assay [1] and 18% in assay [2].

On to `COC(=O)[C@H](C)NC(=O)/C=C/c1ccc(Cl)cc1`, for which the inhibition of growth at 100 ppm is 26% in assay [1] and 44% in assay [2].

Regarding `CCCOC(=O)[C@H](C)NC(=O)/C=C/c1ccc(Cl)cc1`, the inhibition of growth at 100 ppm in assay [1] amounted to 21%; in assay [2], 38%.

For `CCOC(=O)[C@@H](NC(=O)/C=C/c1ccc(Cl)cc1)C(C)C`, the inhibition of growth at 100 ppm in assay [1] amounted to 54%; in assay [2] it was 47%.

`COC(=O)[C@H](CC(C)C)NC(=O)/C=C/c1ccc(Cl)cc1`: the values for the inhibition of growth at 100 ppm in assay [1] and in assay [2] were 32% and 50%, respectively.

Turning to `COC(=O)[C@H](Cc1ccccc1)NC(=O)/C=C/c1ccc(Cl)cc1`, the inhibition of growth at 100 ppm in assay [1] is 13%; in assay [2], 47%.

Consider `CCOC(=O)[C@H](Cc1ccccc1)NC(=O)/C=C/c1ccc(Cl)cc1`, for which the results for the inhibition of growth at 100 ppm in assay [1] and in assay [2] were 15% and 22%, respectively.

In the case of `COC(=O)[C@H](C)NC(=O)/C=C/c1ccc(Cl)cc1Cl`, the inhibition of growth at 100 ppm in assay [1] is 55%; in assay [2], 49%.

Regarding `CCCOC(=O)CNC(=O)/C=C/c1ccc(Cl)cc1Cl`, the figures for the inhibition of growth at 100 ppm in assay [1] and in assay [2] were 40% and 28%, respectively.

Take `COC(=O)[C@H](CC(C)C)NC(=O)/C=C/c1ccccc1`: the inhibition of growth at 100 ppm in assay [1] stood at 23%; in assay [2], 30%.

With `CCOC(=O)[C@H](CC(C)C)NC(=O)/C=C/c1ccccc1`, the inhibition of growth at 100 ppm was 16% in assay [1] and 40% in assay [2].

For `CCCOC(=O)[C@H](CC(C)C)NC(=O)/C=C/c1ccccc1`, the inhibition of growth at 100 ppm amounted to 31% in assay [1] and 45% in assay [2].

Take `CC(C)C[C@H](NC(=O)/C=C/c1ccccc1)C(=O)OC(C)C`: the inhibition of growth at 100 ppm in assay [1] was 34%; in assay [2] it was 41%.
